Results taken from patent US5348956A, “Substituted cyclopropylamino-1,3,5-triazines” (UCB S.A., priority 1991, dated 1994).
Read-outs that look alike come from different tables or passages of the source.

Assays:
[1] = system: bronchospasm induced by histamine; assay: bronchospasmolytic activity (Konzett and Roessler), bronchospasm induced by histamine; type: in vivo, Dunkin-Hartley guinea-pig; conditions: Cavia porcellus; intravenous; histamine-induced bronchospasm; read-out: Doses (ID50), Histamine
Procedure: This activity was measured in the Dunkin-Hartley guinea-pig by the method of H. KONZETT and […] (Naunyn Schmiedebergs Arch. exp. Path. […] The anesthetized (urethane) and curarized (gallamine) guinea-pig is placed under assisted respiration. The endotracheal pressure is recorded. […] The compound to be tested is also administered intravenously two minutes before the administration of the spasmogen and then in 3 to 4 cumulative doses in increasing amounts at intervals of 15 minutes. Six animals per compound to be tested and per spasmogen are used.

[2] = system: plantar edema induced by immune complexes; assay: "reverse passive Arthus" (RPA) test, anti-inflammatory and anti-edema activity; type: in vivo, Sprague-Dawley rat; conditions: Rattus norvegicus, intravenous
Procedure: The reaction between a soluble antigen and antibodies in the organism may lead to an acute inflammatory reaction accompanied by release of histamine, modification of vascular permeability and formation of a localized edema. […] To this end, the Arthus reaction is induced by subplantar administration of 0.1 ml of heterologous antivalbumin reaginic serum into the right hind paw and by simultaneous intravenous injection of 1 ml/kg ovalbumin (25 mg/ml). The compound to be tested is administered intravenously 30 seconds before induction of the Arthus reaction, in a least 3 different doses. A group of 6 rats is used per dose of compound to be tested. The volume of the paw is measured by plethysmometry before the Arthus reaction and 3 to 5 hours after induction of the Arthus reaction, both in the control animals and in the treated animals. The effect of a compound on the reduction in the edema for each dose and at each measurement time (3 hours and 5 hours) is expressed in % of the edema observed in the control animals. The doses of the compounds (ID30 in μmole/kg) which inhibit by 30%, on average over all the animals, the volume of the edema observed in the control animals are given in Table VII below.

[3] = system: anaphylactic release of histamine, guinea-pig lung sections; assay: inhibition of the anaphylactic release of histamine (proper effect); type: cell-based, Dunkin-Hartley guinea-pigs; conditions: Cavia porcellus, in vitro, read-out: Minimum inhibitory dose (MID)
Procedure: (§1) Dunkin-Hartley guinea-pigs which are first passively sensitized by an intravenous injection of 1 ml of isologous antiovalbumin serum are used. Twenty-four hours after the injection, the lungs are then perfused with a Tyrode buffer to evacuate the blood, and then removed and cut into sections of 1 mm. These sections are divided up into test tubes (3 sections per tube) to give 10 experimental groups of lung sections per guinea-pig. A "positive" control group of lung sections is stimulated by addition of an ovalbumin solution (0.1 mg/ml) to induce the anaphylactic release of histamine and serves to determine the maximum amount of histamine (100%) which can be released. A "negative" control group which is not stimulated by ovalbumin serves to determine the naturally released amount of histamine (spontaneous release). In three other groups, the lung sections are incubated at 37° C. for 30 minutes in the ovalbumin solution in the presence of three different doses of the compound to be tested (one dose per group). […] At this dose, isoprenaline inhibits the release of histamine by 30 to 40%, which is verified on a control group treated only with isoprenaline alone at this dose. In addition, a supplementary control group which is not stimulated by ovalbumin is used to detect a possible spontaneous release of histamine by the highest dose of the compound tested. In each group, the histamine released in the incubation medium is measured by spectrofluorometry (D. P. EVANS et al., Life Sci., 12, (1973), 327-336).

[4] = system: anaphylactic release of histamine, guinea-pig lung sections; assay: potentiation of the inhibition of anaphylactic histamine release by isoprenaline; type: cell-based, Dunkin-Hartley guinea-pigs; conditions: with isoprenaline 10^-7 mole per liter
Procedure: as §1

[5] = system: longitudinal muscles of the ileum contracted by histamine; assay: potentiation of the myorelaxing effect of isoprenaline on the ileum; type: cell-based, Dunkin-Hartley guinea-pigs; conditions: with isoprenaline 10^-7 mole/l; histamine 3.2 μmoles/l
Procedure: (cf. R. A. TURNER, "Screening Methods in Pharmacology", Ed. Acad. Press, San Diego, 1965, chapter IV, pages 43-47). […] Inhibition cycle: When the successive contractions induced by the histamine injections have become reproducible, the compound to be tested is injected immediately after the second wash. The contraction induced by the following injection of histamine is measured and compared with the average of the three preceding contractions caused by the repeated injections of histamine (control contractions). From the result obtained, the percentage inhibition of the contraction is calculated. Several cycles of histamine injection are then performed again, until the contractions of the muscle become reproducible again; the muscle is then ready for testing of another compound. The potentiating effect of a compound is measured in the course of a so-called "potentiation" cycle, which comprises three successive inhibition cycles. […] In the course of the second inhibition cycle, the percentage inhibition of the contraction obtained with the compound to be tested, injected alone at a given dose, is determined. In the third inhibition cycle, isoprenaline and the compound to be tested are injected simultaneously, and the percentage inhibition of the contraction is calculated for the dose used of the compound tested. The same experiments are repeated for each of the doses of the compounds tested.

PMN granulocytes = assay: inhibition of the stimulation of PMN granulocytes (chemiluminescence); type: cell-based, Rat; conditions: Rattus norvegicus; 10^-6 mole/l; FMLP 3.2×10^-7 mole/liter; read-out: Residual chemiluminescence
Excerpt: Polymorphonuclear neutrophil granulocytes (PMN) are cells which are mobilized during inflammatory phenomena and which can be stimulated by various compounds, such as, for example, formylmethionyl-leucylphenylalanine (FMLP) or prostaglandins E (PGE1). The PMN granulocytes respond to these extracellular stimuli with an activation of the oxygen metabolism with release of toxic oxygenated metabolites. An excessive response of the PMN granulocytes may be the cause of a painful inflammation and is also accompanied by a reduction in the level of cyclic adenosine monophosphate (cAMP) in these granulocytes. Consequently, compounds which inhibit the respiratory burst of PMN granulocytes or which increase the level of cAMP can be regarded as very important in the treatment of arthritis and asthma. […] Rat PMN granulocytes (5×10^6 /ml) are preincubated in a phosphate buffer ([…], pH 7.4), containing luminol at a concentration of 10^-5 mole per liter, for 15 minutes at 37° C. and then for 5 minutes in the presence of the compound to be treated at a concentration of 10^-6 mole/liter. […] The luminescence which results from the stimulation is measured by means of an LKB 1251 luminometer according to the method of […] and […] (Infection and Immunology, 37, (1982), 34-39). An experimental cycle lasts 38 seconds. The reaction is repeated 9 times for each compound to be tested and the average of the results obtained is calculated.

[6] = system: amnesia induced by scopolamine; assay: multiple-trial passive avoidance: mnemic retention, amnesia induced by scopolamine
Procedure: To this end, the method of multiple-trial passive avoidance has been used. […] The test is carried out on male Sprague-Dawley rats (160-200 g). which are kept in standard cages throughout the experiment. The apparatus used is a transparent square cage with 35 cm sides and 25 cm high, fitted with a grid floor which can be electrified. A rubber insulating mat (10×17 cm) is placed on the floor in one of the corners of the cage.
Each animal is subjected to four tests at times 0, 4, 24 and 28 hours. In the first test (time 0), the animal is placed on the rubber mat and the time which it takes to decide to leave this position to explore the cage is recorded. After 20 seconds of exploration, the rat receives an electric shock (3 seconds duration) in the paws, causing an escape reaction. The rat is immediately removed from the apparatus and replaced in its original cage. In the course of the three subsequent tests (times: 4, 24 and 28 hours), the animal is replaced on the rubber mat and the time taken to leave this position is recorded. As soon as the four paws of the animal rest on the grid, it receives an electric shock and is removed immediately from the apparatus.
At the start of the experiment, the rats are divided into 4 homogeneous groups of 15 animals. Thirty minutes before each test, each group of animals is subjected to a predetermined treatment:
Groups 1 and 2 are used in the first experiment (learning) and groups 3 and 4 in the second experiment (mnemic retention).
The differences found are analyzed statistically by the Mann-Whitney method.

[7] = 3 hours after induction of the Arthus reaction, read-out: Dose (ID30), 3 hours
[8] = 5 hours after induction of the Arthus reaction, read-out: Dose (ID30), 5 hours
[9] = 4 hours, 1.0 mg/kg i.p. + 0.5 mg scopolamine
[10] = 24 hours, 1.0 mg/kg i.p. + 0.5 mg scopolamine
[11] = 28 hours, 1.0 mg/kg i.p. + 0.5 mg scopolamine
[12] = time 0, 1.0 mg/kg i.p. + 0.5 mg scopolamine
[13] = 4 hours, 2.8 mg/kg i.p. + 0.5 mg scopolamine
[14] = 24 hours, 2.8 mg/kg i.p. + 0.5 mg scopolamine
[15] = 28 hours, 2.8 mg/kg i.p. + 0.5 mg scopolamine
[16] = time 0, 2.8 mg/kg i.p. + 0.5 mg scopolamine

SMILES | ED50 [1] [µmol/kg] | ED30 [2, 7] [µmol/kg] | ED30 [2, 8] [µmol/kg] | minimal effective concentration [3] [µM] | Minimum potentiating dose (MPD) [4] [µmol/L] | Minimum potentiating dose (MPD) [5] [µmol/L] | activity at 1 µM (PMN granulocytes) [%] | Period of remaining on the mat, group 4 [6, 9] [s] | Period of remaining on the mat, group 4 [6, 10] [s] | Period of remaining on the mat, group 4 [6, 11] [s] | Period of remaining on the mat, group 4 [6, 12] [s] | Period of remaining on the mat, group 4 [6, 13] [s] | Period of remaining on the mat, group 4 [6, 14] [s] | Period of remaining on the mat, group 4 [6, 15] [s] | Period of remaining on the mat, group 4 [6, 16] [s] | further results
CCCc1nc(NC2CC2)nc(N2CCOCC2)n1 [Compound 1, 2-Cyclopropylamino-4-morpholino-6-n-propyl-1,3,5-triazine] | 0.01 | 2 | 2 | 0.1 | 0.32 | 0.032 | 47 | – | – | – | – | – | – | – | – | Period of remaining on the mat, group 4 ([6]; 4 hours, 3.0 mg/kg i.p. + 0.5 mg scopolamine): 42.8 s; Period of remaining on the mat, group 4 ([6]; 24 hours, 3.0 mg/kg i.p. + 0.5 mg scopolamine): 77.2 s; Period of remaining on the mat, group 4 ([6]; 28 hours, 3.0 mg/kg i.p. + 0.5 mg scopolamine): 114.6 s; Period of remaining on the mat, group 4 ([6]; time 0, 3.0 mg/kg i.p. + 0.5 mg scopolamine): 19.2 s
CCc1nc(NC2CC2)nc(N2CCOCC2)n1 [Compound 2] | 0.3 | 2.3 | 0.7 | 1 | 3.2 | 1.0 | 68 | 18.9 | 24.3 | 36.5 | 7.9 | – | – | – | – | –
C1CN(c2nc(NC3CC3)nc(C3CC3)n2)CCO1.Cl [Compound 3, 2-cyclopropyl-4-cyclopropylamino-6-morpholino-1,3,5-triazine hydrochloride] | 0.03 | 0.8 | 0.4 | 0.032 | 0.32 | 0.032 | 39 | 35.5 | 105.0 | 121.0 | 6.5 | – | – | – | – | –
C1CC(c2nc(NC3CC3)nc(N3CCOCC3)n2)C1 [Compound 4, 2-cyclobutyl-4-cyclopropylamino-6-morpholino-1,3,5-triazine] | 0.004 | 9 | 10 | 0.32 | 0.1 | 0.032 | 45 | – | – | – | – | 44.5 | 91.5 | 106.6 | 12.3 | –
CCCc1nc(NC2CC2)nc(N2CCC(O)CC2)n1 [Compound 5] | 0.06 | 3.1 | 27 | 0.32 | 3.2 | 1.0 | 74 | – | – | – | – | 34.2 | 35.9 | 73.3 | 14.5 | –
CCCc1nc(NC2CC2)nc(N(CCO)CCO)n1 [Compound 6] | 0.1 | 12 | 9 | 1 | 1.0 | 1.0 | 55 | – | – | – | – | – | – | – | – | Period of remaining on the mat, group 4 ([6]; 4 hours, […] i.p. + 0.5 mg scopolamine): 11.7 s; Period of remaining on the mat, group 4 ([6]; 24 hours, […] i.p. + 0.5 mg scopolamine): 24.8 s; Period of remaining on the mat, group 4 ([6]; 28 hours, […] i.p. + 0.5 mg scopolamine): 28.7 s; Period of remaining on the mat, group 4 ([6]; time 0, […] i.p. + 0.5 mg scopolamine): 5.3 s
OCCN(CCO)c1nc(NC2CC2)nc(C2CC2)n1 [Compound 7] | 0.2 | 7.7 | 11 | 0.32 | 1.0 | 0.32 | 54 | – | – | – | – | 34.5 | 94.0 | 133.0 | 9.8 | –
CCCc1nc(NC2CC2)nc(N2CC3CCC(C2)O3)n1 [Compound 11] | 0.1 | 0.5 | 0.4 | 1 | 0.32 | 0.032 | 44 | – | – | – | – | – | – | – | – | Period of remaining on the mat, group 4 ([6]; 4 hours, 3.3 mg/kg i.p. + 0.5 mg scopolamine): 21.4 s; Period of remaining on the mat, group 4 ([6]; 24 hours, 3.3 mg/kg i.p. + 0.5 mg scopolamine): 58.6 s; Period of remaining on the mat, group 4 ([6]; 28 hours, 3.3 mg/kg i.p. + 0.5 mg scopolamine): 93.2 s; Period of remaining on the mat, group 4 ([6]; time 0, 3.3 mg/kg i.p. + 0.5 mg scopolamine): 10.7 s
CC(C)c1nc(NC2CC2)nc(N2CC3CCC(C2)O3)n1 [Compound 12] | 0.04 | 2.5 | 3 | 0.1 | 0.1 | 0.01 | 36 | 18.0 | 51.1 | 94.5 | 3.6 | – | – | – | – | –
